The values that follow come from patent US20200010910A1, “Cytotoxic Chemotherapy-Based Predictive Assays for Acute Myeloid Leukemia” (The Regents of The University of California, priority 2017, published 2020).

For test [1], the system named is 5637R. Put plainly: MTT assay IC50, oxaliplatin-resistant bladder cancer sub-line. Type of test: cell-based, human. To be noted: 5637R, 72 hours. The procedure:
Drug-DNA adduct formation and repair was measured by accelerator mass spectrometry.
To confirm that 5637 was the original ATCC cell line, and that 5637R originated from the parental 5637 cell line, both cultures were sent to the ATCC Cell Line Authentication Service for cell verification per the ATCC protocol. More specifically, fifteen short tandem repeat (STR) loci plus the gender determining locus, amelogenin, were amplified using the commercially available PowerPlex® 16HS Kit from Promega.
These two cell lines were also cultured with a range of concentrations of cisplatin, carboplatin, gemcitabine, doxorubicin, methotrexate and vinblastine for 72 hours to determine IC50 for these other drugs (FIG. 16C). These drugs were chosen because of their frequent use in the treatment of bladder cancer.
A general note: Tetrazolium dyes change colour on reduction, which living cells bring about.

Test [2] concerns six breast cancer cell lines. Put plainly: carboplatin-DNA monoadducts by AMS in cell culture. It is filed as cell-based, human. To be noted: 4 hours exposure, range over cell lines and time points. Here is the method: Cells were seeded in 60-mm dishes at a density of 1×10^6 cells/dish and allowed to attach overnight in a 37° C. humidified atmosphere containing 5% C02. Cells were treated with 1 μM (a relevant microdose concentration) and 100 μM (a therapeutically relevant concentration) carboplatin. Both the microdose and the therapeutic cell culture treatments included 0.3 μM of [^14C]carboplatin at a final concentration 50,000 dpm/ml for 4 hours, followed by washing and incubation in culture medium free of carboplatin. […] The number of carboplatin-DNA monoadducts was calculated based on the ^14C content in genomic DNA as measured by AMS. […] The concentration of the DNA was determined by its absorption at 260 nm using a Nanodrop spectrophotometer, and then the samples were stored frozen at −80° C. For AMS analysis, a DNA sample was thawed, mixed well by vortexing, and 1-10 μg of DNA was then submitted for AMS analysis, which includes the addition of 1.0 mg of tributyrin as a carrier, followed by combustion to CO2 and reduction to graphite according to published protocols (Ognibene, Ted J., et al. “A high-throughput method for the conversion of CO2 obtained from biochemical samples to graphite in septa-sealed vials for quantification of 14C via accelerator mass spectrometry.” Analytical chemistry 75.9 (2003): 2192-2196). […]

For orientation: IC50 means the concentration that gives 50% inhibition. As to `N.N.O=C([O-])C1(C(=O)[O-])CCC1.[Pt+2]` [carboplatin], the IC50 in test [1] is 72.2 µM. In addition, the figures for the “DNA damage concentrations (carboplatin-DNA monoadducts)” value in test [2] (microdose 1 μM carboplatin) and in test [2] (therapeutic dose 100 μM carboplatin) were 1-15 monoadducts per 10^8 nt and 100-1500 monoadducts per 10^8 nt, respectively.
